Source: PubChem BioAssay (NCI)
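Exposure lasted 48 hours, with cells grown in 96-well plates and compounds tested at five concentrations. Abbreviation: GI50, concentration required for 50% inhibition of growth. TGI: concentration producing complete growth inhibition.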 *1 amine or outer side, *2 acyl side, *3 side chain or, on linkers, in order; H or OH if unused. Where a SMILES comes first, the peptide text is derived from it. Bridges are numbered along the chain shown (N, C = ends). Roman numbers before positions name the chains, in order. [ ]: non-standard residue; d: D form. Actinocin(9to1) = Cc1c2oc3c(C)ccc(C(=O)[*:1])c3nc-2c(C(=O)[*:2])c(N)c1=O; NMeV = CN[CH](C(=O)O)C(C)C; Sar = CNCC(=O)O

What was measured:
Experiment in all cases: NCI tumour cell line growth inhibition, 48 h
[1] = system: HCC-2998 colon
[2] = system: IGROV1 ovarian
[3] = system: OVCAR-3 ovarian
[4] = system: SF-268 CNS
[5] = system: SK-MEL-2 melanoma
[6] = system: SK-OV-3 ovarian
[7] = system: TK-10 renal
[8] = system: UACC-257 melanoma
[9] = system: UO-31 renal

Row | Structure (SMILES) | TGI [1] [µM] | TGI [2] [µM] | TGI [3] [µM] | TGI [4] [µM] | TGI [5] [µM] | TGI [6] [µM] | TGI [7] [µM] | TGI [8] [µM] | TGI [9] [µM] | GI50 [5] [µM]
1 | CCCNC(C#N)c1ccc(C(C#N)NCCC)cc1 (configuration not stated) | > 100 | > 100 | > 100 | > 100 | > 100 | > 100 | > 100 | > 100 | > 100 | –
2 | O=C1COc2ccc([N+](=O)[O-])cc2C(=O)C1 | > 10 | > 10 | > 10 | > 10 | > 10 | > 10 | > 10 | > 10 | > 10 | –
3 | O=c1[nH]nc(-c2ccccc2)n1/N=C/c1c(O)ccc2ccccc12 | > 100 | > 100 | 43.2 | > 100 | > 100 | 68.4 | > 100 | > 100 | > 100 | –
4 | CC(C)(C)C(=O)ON1N=NC2C3CC(OCc4ccccc4)(OCc4ccccc4)C(O3)C21 (configuration not stated) | 31.2 | > 100 | 35.9 | 88.2 | 34.3 | > 100 | – | 29.2 | 49.7 | –
5 | NC(=O)c1ccc2c(c1)S(=O)(=O)c1ccccc1C2=O | > 100 | > 100 | > 100 | > 100 | > 100 | > 100 | > 100 | > 100 | > 100 | –
6 | Cc1sc(/N=C/c2c[nH]c3ccccc23)c(C#N)c1C | 70.5 | > 100 | 66.1 | > 100 | > 100 | > 100 | 74.9 | > 100 | > 100 | –
7 | CCCCc1ccc(Nc2ncc3[nH]cnc3n2)cc1 | 37.8 | 39.6 | 28.9 | 50.1 | 53.3 | 38.1 | 30.9 | 59 | 37.9 | –
8 | COC(=O)/C=C1\CCC(C)(C(=O)NS(=O)(=O)c2ccc(C)cc2)C1(C)C (configuration not stated) | > 100 | > 100 | > 100 | > 100 | > 100 | > 100 | > 100 | > 100 | > 100 | –
9 | CCOC(=O)CNC(=O)C(C)NC(=O)C(NC(=O)CC(c1ncc[nH]1)c1ncc[nH]1)C(C)CC (configuration not stated) | > 100 | > 100 | > 100 | > 100 | > 100 | > 100 | > 100 | > 100 | > 100 | –
10 | O=[N+]([O-])c1ccc(N=Nc2c(O)c(S(=O)(=O)O)cc3cc(S(=O)(=O)O)ccc23)cc1 | > 100 | > 100 | > 100 | – | > 100 | > 100 | > 100 | > 100 | > 100 | –
11 | COC(=O)n1c(=O)n(-c2ccccc2)c(=O)n1C(=O)OC | > 100 | > 100 | > 100 | > 100 | > 100 | > 100 | > 100 | > 100 | > 100 | –
12 | CCCCCCCCCCCCCCCCCCNc1ccn(C2OC(COP(=O)(O)OCC3OC(n4cc(C)c(=O)[nH]c4=O)CC3N=[N+]=[N-])C(O)C2O)c(=O)n1 (configuration not stated) | 29.9 | 42.5 | > 100 | 43.6 | 39.8 | 40.3 | 69.5 | 76.3 | 58.8 | –
13 | CC(CO)C1C[C@H](O)[C@@]2(C)CC(=O)C=C(CO)[C@@H]2C1 (some centres not stated) | > 100 | > 100 | > 100 | > 100 | > 100 | > 100 | > 100 | > 100 | > 100 | –
14 | CN(C)CCNC(=O)c1cccc2nc3c(nc12)-c1ccccc1C3=O | 38.1 | > 71.1 | 43.2 | 32.2 | 32.4 | 97 | 56.6 | 34.6 | 39.1 | –
15 | COc1ccc(-c2c(N)n(-c3cccc(C(=O)O)c3)c(=O)c3cc([N+](=O)[O-])ccc23)cc1 | > 100 | > 100 | > 100 | > 100 | > 100 | > 100 | > 100 | > 100 | > 100 | –
16 | O=C(N/N=C/c1cc(Cl)cc(Cl)c1[O-])c1ccccc1O.O=C(N/N=C/c1cc(Cl)cc(Cl)c1[O-])c1ccccc1O.[Ni+2] | 1.56 | 1.74 | 0.835 | 18.5 | 1.35 | 3.93 | 7.81 | 2.67 | 10.1 | 0.329
17 | O=c1c(C=Nc2ccc([N+](=O)[O-])cc2)c(O)n(-c2ccccc2)c(=O)n1-c1ccccc1 | > 100 | > 100 | > 100 | > 100 | > 100 | > 100 | > 100 | > 100 | > 100 | –
18 | O=c1c2cc(I)ccc2nc(Sc2ncccc2[N+](=O)[O-])n1Cc1ccccc1 | > 100 | > 100 | > 100 | > 100 | 30.8 | > 100 | > 100 | > 100 | > 100 | –
19 | O=C1C=C(Br)c2c(Br)sc(Br)c21 | 28.1 | 16.5 | 31.4 | > 57.3 | 49.3 | 64.3 | 23.5 | 12.6 | 10.3 | –
20 | CC(C)(C)C1(COC(=O)c2ccc(N)cc2)COC1 | > 100 | > 100 | > 100 | > 100 | > 100 | > 100 | > 100 | > 100 | > 100 | –
21 | Cc1ccc(N2CCc3c(C)c(C#N)c4nc5ccccc5n4c32)cc1 | > 100 | > 100 | > 100 | > 100 | > 100 | > 100 | > 100 | > 100 | > 100 | –
22 | CC[C@H](C)[C@H]1NC(=O)[C@@H](NC(=O)[C@@H](CC(C)C)N(C)CC2CCCN2C(=O)C(C)=O)[C@@H](C)OC(=O)[C@H](Cc2ccc(OC)cc2)N(C)C(=O)C2CCCN2C(=O)[C@H](CC(C)C)NC(=O)[C@@H](C)C(=O)[C@H](C(C)C)OC(=O)C[C@@H]1O (some centres not stated) | 0.00958 | 0.016 | 0.0151 | 0.0257 | 0.00703 | 0.0194 | 0.0202 | 0.0128 | 0.0862 | –

Row | Structure (SMILES) | TGI [1] [µM] | TGI [2] [µM] | TGI [3] [µM] | TGI [4] [µM] | TGI [5] [µM] | TGI [6] [µM] | TGI [7] [µM] | TGI [8] [µM] | TGI [9] [µM] | GI50 [5] [µM]
23 | CCc1ccc2[nH]c(O)c(-c3[nH]c4ccccc4c3N=O)c2c1 | 8.52 | 18.6 | 14.4 | 22.3 | 15.3 | 12.1 | 23.7 | 28.5 | 12 | –
24 | C=CCSC1=N/C(=C\c2ccccc2)C(=O)N1CC=C | > 100 | > 100 | > 93.9 | > 57.7 | 97.6 | > 100 | > 100 | > 82.5 | > 100 | –
25 | O=c1cc(N2CCCC2)[nH]c(=O)n1-c1cccc(C(F)(F)F)c1 | > 100 | > 100 | > 100 | > 100 | > 100 | > 100 | > 100 | > 100 | – | –
26 | CN(NC(=O)CCCl)C1=NCCCCN1 | > 100 | > 100 | > 100 | > 100 | > 100 | > 100 | > 100 | > 100 | > 100 | –
27 | Cc1c2oc3c(C)ccc(C(=O)NC4C(=O)NC(C(C)O)C(=O)N5CCCC5C(=O)N(C)CC(=O)N(C)C(C(C)C)C(=O)OC4C)c3nc-2c(C(=O)NC2C(=O)NC(C(C)O)C(=O)N3CCCC3C(=O)N(C)CC(=O)N(C)C(C(C)C)C(=O)OC2C)c(N)c1=O (configuration not stated) (I: TTP[Sar][NMeV] / II: TTP[Sar][NMeV]; ester I:1-I:C, II:1-II:C; linker I:N-II:N via Actinocin(9to1); configuration not given here) | > 30.3 | > 100 | 4.71 | > 100 | 1.03 | > 100 | 6.18 | 3.2 | 19.6 | –
28 | CN(C)Cc1cc(O)c(O)c(CN(C)C)c1 | 81.8 | > 100 | > 100 | > 100 | > 100 | > 100 | > 100 | 45.9 | > 100 | –
29 | COC(OC)C1OC(CO)C(n2ccc(N)nc2=O)C1O (configuration not stated) | > 100 | > 100 | > 100 | > 100 | > 100 | > 100 | > 100 | > 100 | > 100 | –
30 | [N-]=[N+]=CC(=O)OCC1SCCCS1 | > 100 | > 100 | > 100 | > 100 | > 100 | > 100 | > 100 | > 100 | > 100 | –
31 | C(=C\c1ccccc1)/C=N/c1nc2cc3sc(/N=C/C=C/c4ccccc4)nc3cc2s1 | > 100 | > 100 | > 100 | > 100 | > 100 | > 100 | > 100 | > 100 | > 100 | –
32 | COc1ccc(N=N/C(=N/NC(=O)c2ccccc2)c2ccc(N(CCC#N)CCC#N)cc2C)cc1 | > 100 | > 100 | > 100 | > 100 | > 100 | > 100 | > 100 | > 100 | > 100 | –
33 | COc1ccc2c(c1)n([O-])c(C#N)c(N1CCN(c3ccc([N+](=O)[O-])cc3)CC1)[n+]2=O | > 100 | > 100 | > 100 | > 34.4 | > 100 | > 59.5 | > 100 | > 100 | – | –
34 | N#Cc1c(N2CCCC2)ncn(Cc2ccccc2)c1=O | > 100 | > 100 | > 100 | > 100 | > 100 | > 100 | > 100 | > 100 | > 100 | –
35 | NC(=S)Nc1[nH]c(=S)nc2c1SC1=N/C(=C\c3ccco3)C(=O)N12 | > 50.4 | > 100 | > 100 | > 100 | > 100 | > 100 | > 100 | > 100 | > 100 | –
36 | COc1cc(/C=C2\N=C(c3ccccc3)N(c3nc4c(OC)ccc(OC)c4s3)C2=O)cc(OC)c1OC | > 100 | > 100 | > 100 | > 100 | > 100 | > 100 | > 100 | > 100 | > 100 | –
37 | CCOC(=O)/C=C(\C(=O)OCC)n1ccc(N)nc1=O | > 100 | > 100 | > 100 | > 100 | > 100 | > 100 | > 100 | > 100 | > 100 | –
38 | CCOc1nc(-c2ccccc2)cc(-c2ccc(N3CCOCC3)cc2)c1C#N | > 100 | > 100 | > 100 | > 100 | > 100 | – | > 100 | > 100 | > 100 | –
39 | CC(C)c1ccc(/C=C2\CSCC3=C2NC(=S)NC3c2ccc(C(C)C)cc2)cc1 (configuration not stated) | > 100 | > 100 | > 100 | > 100 | > 100 | > 100 | > 100 | > 100 | > 100 | –
40 | COc1cccc(N(CN2CC=CC2=O)C(C)=O)c1 | > 100 | > 100 | > 100 | > 100 | > 100 | > 100 | > 100 | > 100 | > 100 | –
41 | O=C1/C(=C/c2ccccc2[N+](=O)[O-])N=C(c2ccccc2)N1C1Nc2cc3c(cc2S1)NC(N1C(=O)/C(=C/c2ccccc2[N+](=O)[O-])N=C1c1ccccc1)S3 (configuration not stated) | 38.1 | > 100 | > 100 | > 100 | > 100 | – | > 100 | > 100 | > 100 | –
42 | CCOC(=O)/C=C(/C(=O)OCC)n1cc(C)c(=O)n(Cc2cn(COCCOC(C)=O)nn2)c1=O | 37.6 | 32.1 | 56.1 | 48.2 | > 100 | > 100 | 29.2 | 49.9 | 7.99 | –
43 | O=c1[nH]c(=O)n(Cc2ccccc2CO)cc1Sc1ccccc1 | 30.8 | 29 | 42.2 | 70.6 | 45.8 | > 100 | > 100 | 72.4 | 22.9 | –
